Assay results taken from patent US5108990A, “Glutamic acid derivatives” (Roussel Uclaf, priority 1987, dated 1992).
Where a name gives a salt, the structure may show the parent alone.

Tests used:
[1] = tested on: monocytes; experiment: Stimulation of monocytic cells; Tumor Necrosis Factor (TNF) test on supernatants (toxicity on L-929 target cells); format: cell-based, human; conditions: adherent blood monocytes cultured 24 or 48 hours with test product
Experimental: (§1) The mononuclear cells of the circulating blood of normal donors were separated by the classical technique described by Boyum using a Ficoll gradient. After being washed, the mononuclear cells were incubated at 37° C. for 1 hour in the proportion of 5×10^6 monocytes (NSE^+ cells) per ml of culture medium, 5 ml per culture bottle. The culture medium used in this experiment was composed of RPMI 1640 to which antibiotics and HEPES buffer had been added. After one hour, the non-adherent cells were removed by washing the bottles with medium previously brought to 37° C., and the adherent cells, composed essentially of monocytes (>90%), were cultured again in the presence of different amounts of test products in a PBS medium (Dulbecco) without Ca^2+ or Mg^2+. Culturing was continued for 24 or 48 hours and the cell supernatants were then withdrawn, centrifuged, aliquoted and stored either at -80° C. or at -20° C. The culture supernatants were replaced in the bottles by the same amount of pyrogen-free distilled water to lyse the cells. The lysate was recovered, aliquoted and also stored at -20° C.
(§2) Tests for the presence in the supernants of monokines (interleukin-1 and tumor necrosis factor) on the basis of their biological activity.
The technique was sensitized by adding actinomycin D to the test. The L cells were distributed in the proportion of 2×10^4 cells per well of a flat-bottomed microplate in 100 μl of RPMI 1640 medium enriched with 5% calf serum, glutamine, HEPES buffer and antibiotics. After 24 hours, different dilutions of the test supernatants were added in a volume of 100 μl, as well as a dose of actinomycin D of 1 μg/ml. After 24 hours of culturing, the number of unlysed viable cells was measured by staining the plates with crystal violet and measuring the optical density of different wells on a multiscan reader.

[2] = tested on: monocytes; experiment: Stimulation of monocytic cells; Interleukin-1 (IL-1) test on supernatants/lysates (mouse thymocyte co-mitogenic assay); format: cell-based, human; conditions: for stimulation of monocytes and their IL-1 production: adherent blood monocytes cultured 24 or 48 hours with test product; for synergy with interferon-γ and or LPS: monocyte stimulation (IL-1 and TNF production), IFN-γ 10^3 U/ml, a dose inactive alone
Experimental: as §1, §2
This test was first described by Gery et al in 1972 [Gery et al, 1972 Potentiation of the T Lymphocyte response to mitogens. II. The Cellular Source of Potentiating Mediator(s). J. Exp. Med., 136-143]. It is based on the co-mitogenic action of IL-1 in the presence of an antigen (mimicked by phytohaemagglutinin in the test) on mouse thymocytes. 1.5×10^6 thymocytes of C3 H/HeJ mice (supplied by C.S.E.A.L. of Orleans) were cultured for 3 days in the presence of different dilutions of cell supernatants and lysates likely to contain IL-1 activity, and Wellcome PHA-P (1 μg/ml), in culture plates having 96 flat-bottomed wells, in a final volume of 200 μl of medium composed of RPMI 1640 containing, in addition to antibiotics (penicillin 1 μ/ml streptomycin 1000 μ/ml, 1 mM HEPES buffer, 2 mM glutamine, 5% calf serum and 5×10^-5 M 2-mercaptoethanol). After 68 hours of culturing, 1 μCi of tritiated thymidien was added to each well ([methyl^3 H]-thymidine, CEA Saclay, TMM79A, specific activity […]), and the radioactivity incorporated by the cells was measured after the cultures had been filtered on a Skaton type semi-automatic collecting apparatus and the filters counted in a scintillation counter (LKB). The results were expressed as the difference between the pulses per minute incorporated by the cultures in the presence of supernatants and the pulses per minute incorporated by the control cultures.

[3] = tested on: human B lymphocytes; experiment: Production of immuno-globulins (ELISA of supernatants, alone or with Staphylococcus aureus Cowan); format: cell-based; conditions: in the presence of SAC (10^-3 and 10^-4); 0.1, 1 and 10 μg/ml; one week
Experimental: The same cells were cultivated for a week in the presence of different products to be tested at a dose of 0.1, 1 and 10 μg/ml alone or in the presence of two doses of the bacteria Staphylococcus aureus Cowan (SAC) (10^-3 and 10^-4), bacteria known for stimulating the production of immuno-globulins by the human B lymphocytes in a non-specific manner. The supernatants are collected at the end of the culture, and their content of immuno-globulin is evaluated by standard techniques of detection by the ELISA method using a human anti-immunoglobulin anti-body available commercially. The results are given in ng of immuno-globulin per ml of supernatant.

Row | Compound | stimulation of monocytes and their TNF production [1] | stimulation of monocytes and their IL-1 production [2] | synergy with interferon-γ and or LPS [2] | production of immuno-globulins in the presence of SAC [3]
1 | C=C(CC(N)C(=O)O)CC(NC(=O)CC[C@@H](N)C(=O)O)C(=O)O (stereo partly drawn) [Example 1, 2-amino-6-(γ-D-glutamylamino)-4-methylene-heptanedioic acid] | stimulated | stimulated | synergy | –
2 | C=C(CC(N)C(=O)O)CC(NC(=O)CC[C@@H](NC(=O)CCCCCCCCCCCCCCCCC)C(=O)O)C(=O)O (stereo partly drawn) [Example 9, 2-Amino-4-methylene-6-[[N-(1-oxo-octadecyl)-γ-D-glutamyl]amino]-heptanedioic acid] | stimulated | stimulated | synergy | –
3 | C=C(CC(NC(=O)CC[C@@H](N)C(=O)O)C(=O)O)CC(NC(=O)[C@H](C)N)C(=O)O (stereo partly drawn) [Example 2, 2-(L-Alanylamino)-6-(γ-D-glutamylamino)-4-methyleneheptanedioic acid] | stimulated | stimulated | synergy | –
4 | C=C(CC(N)C(=O)O)CC(NC(=O)CC[C@@H](NC(=O)[C@H](C)NC(=O)CCCCCCCCCCCCCCCCC)C(=O)O)C(=O)O (stereo partly drawn) [Example 8, 2-Amino-4-methylene-6-[N-1-oxo-octadecyl)-L-alanyl)-γ-D-glutamyl-amino]-heptanedioic acid and its tri sodium salt] | stimulated | stimulated | synergy | capable of increasing the production of immuno-globulins
